Entries after “also recorded” stand apart in the source; their conditions may differ. Like-named read-outs stand apart in the source and are kept apart here.
Columns and labels:
[1] = Spontaneous decomposition in solution (h.p.l.c. / nmr); format: physicochemical; conditions: for % of the original remaining: 0.2 M aqueous sodium phosphate pH 6.85, room temperature, h.p.l.c.
Method: This instability prevented full characterisation of the acid (I), so it was converted with diazomethane to its methyl ester (IV) in an overall yield of 16% from the benzyl ester (II) (A.G. Brown et al, J. Chem. Soc. Perkin Trans. I, 1984, 635). The spectral data obtained for the methyl ester (IV) were indistinguishable from those obtained by A. G. Brown et al 1984.
Benzyl 3-oxoethylidene-7-oxo-4-oxa-1-azabicyclo[3.2.0]heptane-2-carboxylate (II) (50 mg, 0. 17m mol) was dissolved in tetrahydrofuran (5 ml) and 0.2 M sodium phosphate adjusted to pH 6.85 (5 ml), and hydrogenated at ambient temperature and pressure for ten minutes with 10% palladium on carbon (40 mg). The reaction mixture was rapidly filtered and evaporated to dryness while the temperature was maintained below 10° C. The residue was immediately redissolved in D2O to give a solution of the title compound (III). δH(250 MHz, D20) inter alia E isomer 3.25 (1H, d, J 17.4 Hz, 6β-H), 3.65 (1H, dd, J 17.4 and 2.9 Hz, 6 α-H), 5.73 (1H, d, J 1.2 Hz, 2-H), 5.79 (1H, dd, J 8.3 and 1 Hz, 8-H), 5.94 (1H, d, 2.7 Hz, 5-H), 9.55 (1H, d, J 8.3 Hz, 9-H), Z isomer 3.29 (1H, d, J 17.3 Hz, 6β-H), 3.65 (1H, dd, J 17.4 and 2.9 Hz, 6 α-H), 5.27 (1H, s, 2-H), 5.50 (1H, d, J 8.2 Hz, 8-H), 6.00 (1H, d, J2.7 Hz, 5-H), and 9.70 (1H, d, J 8.2 Hz, 9-H). The E and Z isomers were assigned on the relative positions of their 8-proton resonance (Gerald Brooks+Eric Huit J.Chem.Soc. Perkin Trans. I (1983) 2513) and were in the ratio E-Z (2:1). Material prepared by the above hydrogenation with water substituting for the phosphate solution and adjustment of the pH of the reaction mixture to 6.5 with 0.1 M NaOH gave (III) (Yield 35% from NaOH consumed), λmax. (H2O) 262 nm; vmax.(KBr) 3 400, 1 792 (br), and 1 640 cm^−1 (br), […]; thin layer chromatography on silica 60 eluted with butan- 1-ol-ethanol-water (4:1:1) and visualised with Schiffs reagent gave a blue zone (Rf:0.52). Addition of a known weight of fumaric acid to the crude product solution followed by evaporation and nmr analysis indicated a yield of 20% by comparison of the intensity of the fumarate protons with the intensity of the aldehydic proton of (M). When this solution was allowed to stand at room temperature for 3.5 hours, (III) was seen to have decomposed to a yield of 3.2%.

[2] = tested on: β-lactamase; test: β-lactamase inhibitory activity (method not specified); format: biochemical
[3] = tested on: broken cell suspension (BCS) of S.clavuligerus SC2; test: Enzymic reduction of (III) to clavulanic acid by broken cell suspension, KaG bioassay; format: biochemical, Streptomyces clavuligerus
[4] = tested on: broken cell suspension (BCS) of S.clavuligerus SC2; test: as above; format: biochemical, Streptomyces clavuligerus; remark: listed apart in the source
Description: Compound (I) was reduced to clavulanic acid by NADPH in the presence of a broken cell suspension of S. clavuligerus SC2 (Table 1). (SC2 is a reisolate of ATCC 27064). The clavulanic acid produced was detected by KaG bioassay (AG. Brown et al J. Antibiot., 1976, 29, 668) and chromatographic tapes loaded with the reaction mixture, were compared with standards to confirm the presence of clavulanic acid. The reduction was complete before a sample could be removed from the reaction vessel, but appeared to give clavulanic acid in only 14% yield. However, should the enzyme be capable of reducing only the Z isomer of (I) (the geometry of clavulanic acid), the yield is 42%.
Enzymic reduction of (III) to clavulanic acid:- solution of (III) (0.23 mg, 1 μmol, estimated by titration of acid (I)) in water ([…] 1μmol) was added to washed 48 hour S.clavuligerus SC2 cells which had been sonicated (EP 0213 914 example 20) (0.5 ml). The suspension was treated with 10 mM NADPH (0.1 ml, 1 umol), made up to one milliliter with 50 mM MOPS buffer at pH 7.0 and incubated in stoppered tubes at 26° C. Samples (0.2 ml) were removed, treated with methanol (0.2 ml) for 5 minutes, and centrifuged. The clear supernatants were made up to 1.6 ml with MOPS buffer and assayed on discs by the KaG method. Undiluted reaction mixture was applied to Whatman No. 1 chromatography tapes which were developed in either butan-1-ol-acetic acid-water (12:3:5) or butan-1-01-ethanol-water (7:1:2), dried, and visualised by application to a KaG bioassay plate. Standard clavulanic acid solutions were developed and visualised similarly.

[5] = target: Klebsiella E70 β-lactamase; test: β-lactamase inhibition by automated chromogenic substrate assay of Reading and Farmer; format: biochemical
Method: β-lactamase inhibition by (III): A solution of III was tested as a β-lactamase inhibitor by the automated chromogenic substrate assay of C. Reading and T. Farmeragainst Klebsiella E70 β-lactamase. Taking the yield of (III) from the hydrogenation reaction as 35% gave an I^50 with pre-incubation of 0.01 μg/ml and without pre-incubation of enzyme and inhibitor of 1μg/ml.

[6] = Boiled BCS + (III) + NADPH 1 mM

SMILES: O=CC=C1OC2CC(=O)N2C1C(=O)O (stereo not shown) [Compound (I), 3-oxoethylidene-7-oxo-4-oxa-1-azabicyclo-[3.2.0] heptane-2-carboxylic acid]
- rate of decomposition compared with I 111 broth supernatant ([1]; (I) chemically synthesised from 2R, 5R clavulanic acid): same rate of decomposition
- half-life ([1]; aqueous solution, read-out: half life in aqueous solution (converted)): ~30 min
- half-life ([1]; at 21° C., read-out: half-life): ~30 min
- β-lactamase inhibitory activity (in words) ([2]; chemically synthesised): shown to possess β-lactamase inhibitory activity; also recorded: Strong β-lactamase activity
- activity as a β-lactamase inhibitor relative to clavulanic acid ([2]; more active than clavulanic acid): approximately 100 times

SMILES: O=CC=C1OC2CC(=O)N2C1C(=O)[O-].[Na+] (stereo not shown) [(III), Sodium 3-Oxoethylidene-7-oxo-4-oxa-1-azabicyclo (3.2.0)heptane-2-carboxylate]
- % of the original remaining ([1]; after 35 minutes): 85%
- % of the original remaining ([1]; after 53 minutes): 63%
- yield remaining after decomposition on standing (nmr vs fumaric acid) ([1]; room temperature for 3.5 hours, initial yield 20%): 3.2%
- time in which about half had decomposed ([1]; solution of the salt, room temperature, repeated h.p.l.c. analysis): one
- Clavulanic Acid at time 0 mins (KaG bioassy) ([3]; (III) + NADPH 1 mM, no BCS): 8.8 µg/mL
- Clavulanic Acid at time 60 mins ([3]; (III) + NADPH 1 mM, no BCS): 7.2 µg/mL
- Clavulanic Acid at time 0 mins (KaG bioassy) ([3]; BCS + (III) + NADH 1 mM): 6.2 µg/mL
- Clavulanic Acid at time 60 mins ([3]; BCS + (III) + NADH 1 mM): 6.6 µg/mL
- Clavulanic Acid at time 0 mins (KaG bioassy) ([3]; BCS + (III)): 8.0 µg/mL
- Clavulanic Acid at time 60 mins ([3]; BCS + (III)): 7.0 µg/mL
- Clavulanic Acid at time 0 mins (KaG bioassy) ([4]; BCS + (III) + NADPH 1 mM): 28.8 µg/mL
- Clavulanic Acid at time 60 mins ([4]; BCS + (III) + NADPH 1 mM): 27.2 µg/mL
- Clavulanic Acid at time 0 mins (KaG bioassy) [4, 6]: 6.6 µg/mL
- Clavulanic Acid at time 60 mins [4, 6]: 6.6 µg/mL
- I50 with pre-incubation ([5]; with pre-incubation of enzyme and inhibitor, yield of (III) from hydrogenation taken as 35%): 0.01 µg/mL
- I50 without pre-incubation ([5]; without pre-incubation of enzyme and inhibitor, yield of (III) taken as 35%): 1 µg/mL

SMILES: O=CC=C1CN2C(=O)CC2O1 (stereo not shown) [(V), 3-oxoethylidene-7-oxo-4-oxa-1-azabicyclo [3.2.0] heptane]
- chemical and stereochemical stability ([1]; organic solution): chemically and stereochemically stable in organic solution

Reference: patent publication US6692950B1, “Clavulanic acid dehydrogenase, preparation and use for the production of clavulanic acid” (SmithKline Beecham plc, priority 1993, dated 2004)
